The assay is described as follows: Antioxidation activity by DPPH method. Particulars: 50 μg/ml, positive control. Here is the method: 7) Antioxidation activity measurement test: The antioxidation activity of each sample was measured by a DPPH method using 1.1-diphenyl-2-picrylhydrazyl. The positive control group was treated with BHT at a concentration of 50 μg/ml.

The values that follow come from patent US20220095663A1, “COMPLEX MUSHROOM MYCELIUM COMPOSITION HAVING LIVER FUNCTION-IMPROVING ACTIVITY AND PREPARATION METHOD THEREFOR” (GIUNCHAN CO., LTD., priority 2019, published 2022).

The molecule `Cc1cc(C(C)(C)C)c(O)c(C(C)(C)C)c1` [BHT] displayed a DPPH inhibition of 10%.
